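Five concentrations, 48 hours, 96-well plates. GI50 marks 50% less growth. TGI: concentration producing complete growth inhibition.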
Columns and labels:
Assay in all cases: growth of human tumour cells (NCI), 48 h
A549 NSCLC = tested on: A549 NSCLC
EKVX NSCLC = tested on: EKVX NSCLC
LOX IMVI melanoma = tested on: LOX IMVI melanoma
M14 melanoma = tested on: M14 melanoma
OVCAR-5 ovarian = tested on: OVCAR-5 ovarian
SF-539 CNS = tested on: SF-539 CNS
SNB-75 CNS = tested on: SNB-75 CNS
SW-620 colon = tested on: SW-620 colon
T-47D breast = tested on: T-47D breast
UO-31 renal = tested on: UO-31 renal

| SMILES | TGI (A549 NSCLC) | GI50 (EKVX NSCLC) | TGI (EKVX NSCLC) | TGI (LOX IMVI melanoma) | TGI (M14 melanoma) | TGI (OVCAR-5 ovarian) | TGI (SF-539 CNS) | TGI (SNB-75 CNS) | TGI (SW-620 colon) | GI50 (T-47D breast) | TGI (T-47D breast) | TGI (UO-31 renal) | GI50 (A549 NSCLC) | GI50 (LOX IMVI melanoma) | GI50 (OVCAR-5 ovarian) | GI50 (SF-539 CNS) | GI50 (SNB-75 CNS) | GI50 (SW-620 colon) | GI50 (UO-31 renal) | GI50 (M14 melanoma) |
| --- | --- | --- | --- | --- | --- | --- | --- | --- | --- | --- | --- | --- | --- | --- | --- | --- | --- | --- | --- | --- |
| [C-]#[O+].[C-]#[O+].[Ir].[O-]c1ccc2ccccc2c1N=Nc1ccccc1 | 70.1 µM | 19.4 µM | 49.1 µM | 24.6 µM | 13.2 µM | 38.3 µM | 50.4 µM | 59.6 µM | 5.37 µM | 11.9 µM | 33.5 µM | 24.4 µM | – | – | – | – | – | – | – | – |
| Fc1c[c-]c(-c2ccccn2)c(F)c1.[CH3-].[Pt+2].c1ccc([PH+](c2ccccc2)c2ccccn2)cc1 | > 100 µM | 1.96 µM | 5.52 µM | 2.69 µM | – | 3.63 µM | 3.07 µM | 9.9 µM | 4.55 µM | 1.13 µM | 5.78 µM | 2.28 µM | 2.66 µM | 1.28 µM | 1.72 µM | 1.58 µM | 1.03 µM | 1.92 µM | 1.08 µM | – |
| CCCCCCCCCCCCOC1C(CNCC2OC3OC(C)(C)OC3C2NC(=O)Nc2ccc(C(F)(F)F)cc2)OC2OC(C)(C)OC21 (stereo not given) | 22 µM | 7.49 µM | 14.5 µM | 5.65 µM | 15.8 µM | 17 µM | 13.9 µM | 13.4 µM | 10.2 µM | 7.31 µM | 16.9 µM | 16.3 µM | 8.53 µM | 2.89 µM | 9.11 µM | 7.09 µM | 6.04 µM | 4.09 µM | 7.33 µM | 8.27 µM |
| COc1ccc2c(O)c(/C=C3\N=Nc4ncccc43)oc2c1C[C@H]1CCNC[C@H]1F | 10.8 µM | 0.484 µM | 9.62 µM | 1.78 µM | 3.64 µM | 24.6 µM | 0.952 µM | 1.54 µM | 2.22 µM | 3.46 µM | 21.1 µM | 3.16 µM | 1.74 µM | 0.304 µM | 0.479 µM | 0.252 µM | 0.185 µM | 0.291 µM | 0.146 µM | 0.589 µM |
| COc1cc(/C=C/C(=O)NC[C@]2(O)CCC3C4CCc5cc(O)ccc5C4CCC32C)ccc1O (stereo not given in full) | > 100 µM | 13.9 µM | > 100 µM | > 100 µM | 37.6 µM | > 100 µM | > 100 µM | > 100 µM | > 100 µM | 6.53 µM | > 100 µM | 49.3 µM | 7.64 µM | 8.36 µM | 56.9 µM | 16.1 µM | 42.5 µM | 34.1 µM | 4.93 µM | 4.99 µM |
| C[C@@H]1[C@H]2[C@H](C=C3[C@@H]4CC[C@H]5Cc6nc7c(nc6C[C@]5(C)[C@H]4C[C@@H](O)[C@@]32C)C[C@@H]2CC[C@H]3C4=C[C@@H]5O[C@@]6(CC[C@](C)(CO)O6)[C@@H](C)[C@@]5(O)[C@@]4(C)[C@H](O)C[C@@H]3[C@@]2(C)C7)O[C@]12CCC(C)(C)O2 | 14.6 µM | 0.377 µM | 14.1 µM | 3.6 µM | 10.5 µM | 19.6 µM | 4.08 µM | 9.54 µM | 7.92 µM | 0.405 µM | > 41.8 µM | 1.54 µM | 0.809 µM | 0.51 µM | 1.22 µM | 0.114 µM | 0.14 µM | 0.711 µM | 0.275 µM | 1.22 µM |

From PubChem BioAssay (NCI)
